# Assay results taken from ChEMBL document CHEMBL5729557, “5-membered heteroaryl carboxamide compounds for treatment of HBV” (2023).
# Assay: Assay Measuring Activity of Test Compounds on Viral Production from HepAD38 Cells: HepAD38 cells grown in a T-150 flask (Corning, cat #: 430825) with Growth Medium (DMEM/F12 (1:1) (Hyclone, cat #: SH30023.02), 1× Pen/Strep (Invitrogen, cat #: 15140-122), 10% FBS (Tissue Culture Biologics, cat #: 101), 250 μg/mL G418 (Alfa Aesar, cat #: J62671), 1 μg/mL Tetracycline (Teknova, cat #: T3320)) were detached with 0.25% trypsin-EDTA to (Invitrogen, cat #: 25200-056). Tetracycline-free treatment medium (15 mL DMEM/F12 (1:1) 1× Pen/step, with 2% FBS, Tet-system approved (Clontech, cat #: 631106) were then added to mix, transferred into a 50 ml conical tube (Falcon, cat #: 21008-918,) and spun at 1300 rpm for 5 min. Pelleted cells were then re-suspended/washed with 50 mL of 1×DPBS (Invitrogen, cat #: 14190-136) 2 times and 50 mL treatment medium twice. HepAD38 cells were then re-suspended with 10 mL of treatment medium, syringed and counted. Wells of 96-well clear bottom TC plate (Corning, cat #: 3904,) were seeded at 50,000 cells/well in 180 μL of treatment medium, and 20 μL of either 10% DMSO (Sigma, cat #: D4540) as controls or a 10× solution of test compounds in 10% DMSO in treatment media was added for a final compound concentration starting at 10 μM, and plates were incubated in 5% CO2 incubator at 37° C. for 5 days.Subsequently viral load production was assayed by quantitative PCR (qPCR) of the HBV core sequence. PCR reaction mixture containing forward primers HBV-f 5′-CTGTGCCTTGGGTGGCTTT-3′ (IDT DNA), Reverse primers HBV-r 5′-[…]-3′ (IDT DNA), Fluorescent TaqMan™ Probes HBV-probe 5′-FAM/AGCTCCAAA/ZEN/[…]/3IABkFQ-3′ (IDT DNA), 10 μL/well of PerfeCTa® qPCR ToughMix® (Quanta Biosciences, Cat #: 95114-05K), and 6 μL/well of DEPC water (Alfa Aesar, cat #: J62087) was prepared. […] of supernatant was added to 16 μL of the reaction mixture in a qPCR plate (Applied Biosytems, Cat #: 4309849), sealed with a film (Applied Biosystems, Cat #: 4311971), centrifuged for a few seconds, and subsequently run on an Applied Biosystems VIIA7. The PCR mixture was incubated at 45° C. for 5 min, then 95° C. for 10 min, followed by 40 cycles of 10 seconds at 95° C. and 20 seconds at 60° C. Viral load was quantified against known HBV DNA standards by using ViiA™ 7 Software. Viral load in the supernatant from wells with treated cells were compared against viral load in supernatant from DMSO control wells (>3 per plate). Cell viability assay was performed with CellTiter-Glo Luminescent Cell Viability Assay (Promega, cat #: G7573) with modification. Mixed appropriate amount of CellTiter-Glo (CTG) 1×DPBS in a 1:1 ratio, added 100 uL of the mixture to each well followed completely removal of all supernatant in each well without touching cell surface. Incubated the plate at room temperature for 10 min on an orbital shaker, and then read the plate with a plate reader (TECAN M1000 or Envision).
# Conditions: HePAD38
smiles,measurement,value
Cn1nc(C2CC3CC(O)(CS(=O)(=O)CCCN4CCNC(=O)C4)CC3C2)c(C(=O)Nc2ccc(F)c(Cl)c2)c1N (stereo not drawn),EC50,in the range around 5250 nM
Cn1nc([C@@H]2CC3CC(O)(CN4CCOCC4)C[C@@H]3C2)c(C(=O)Nc2ccc(F)c(Cl)c2)c1N (stereo partly drawn),EC50,in the range around 5250 nM
COc1cc(C(=O)NCCS(C)(=O)=O)ccc1[C@H]1CC[C@@H](c2nn(C)c(N)c2C(=O)Nc2ccc(F)c(Cl)c2)C1,EC50,in the range around 300 nM
COc1cc(C(O)NCCN)ccc1C1CCC(c2nn(C)c(N)c2C(=O)Nc2ccc(F)c(Cl)c2)C1 (stereo not drawn),EC50,in the range around 300 nM
Cn1cc(C(=O)Nc2ccc(F)c(Cl)c2)c(C2CC3CC(=O)CC3C2)n1 (stereo not drawn),EC50,in the range around 5250 nM
COc1cc(-c2nccn2C)ccc1[C@H]1CC[C@@H](c2nn(C)c(N)c2C(=O)Nc2ccc(F)c(Cl)c2)C1,EC50,in the range around 300 nM
COc1cc(-c2c[nH]cn2)ccc1[C@H]1CC[C@@H](c2nn(C)c(N)c2C(=O)Nc2ccc(F)c(Cl)c2)C1,EC50,in the range around 300 nM
Cn1nc([C@@H]2CC3CC(O)(CN4CCCCC4)C[C@@H]3C2)c(C(=O)Nc2ccc(F)c(Cl)c2)c1N (stereo partly drawn),EC50,in the range around 300 nM
COc1cc(-c2ncc[nH]2)ccc1[C@H]1CC[C@@H](c2nn(C)c(N)c2C(=O)Nc2ccc(F)c(Cl)c2)C1,EC50,in the range around 5250 nM
Cn1nc([C@@H]2CC3CC(O)(CS(=O)(=O)CCCN4CCNCC4=O)C[C@@H]3C2)c(C(=O)Nc2ccc(F)c(Cl)c2)c1N (stereo partly drawn),EC50,in the range around 5250 nM
Cn1nc([C@@H]2CC3CC(O)(CN4CCOCC4)C[C@H]3C2)c(C(=O)Nc2ccc(F)c(Cl)c2)c1N (stereo partly drawn),EC50,in the range around 300 nM
COc1cc(-c2cnn(C)c2)ccc1C1CCC(c2nn(C)c(N)c2C(=O)Nc2ccc(F)c(Cl)c2)C1 (stereo not drawn),EC50,in the range around 300 nM
COc1cc(-c2nccn2C)ccc1[C@@H]1CC[C@@H](c2nn(C)c(N)c2C(=O)Nc2ccc(F)c(Cl)c2)C1,EC50,< 100 nM
COc1cc(-c2c[nH]cn2)ccc1[C@@H]1CC[C@@H](c2nn(C)c(N)c2C(=O)Nc2ccc(F)c(Cl)c2)C1,EC50,< 100 nM
COc1cc(-c2cn(C)cn2)ccc1[C@@H]1CC[C@@H](c2nn(C)c(N)c2C(=O)Nc2ccc(F)c(Cl)c2)C1,EC50,< 100 nM
COc1cc(-c2cscn2)ccc1C1CCC(c2nn(C)c(N)c2C(=O)Nc2ccc(F)c(Cl)c2)C1 (stereo not drawn),EC50,< 100 nM
Cn1nc(C2CCC(c3cnc(C(F)(F)F)s3)C2)c(C(=O)Nc2ccc(F)c(Cl)c2)c1N (stereo not drawn),EC50,in the range around 5250 nM
Cn1nc([C@@H]2CC3CC(O)(CN4CCCCC4)C[C@H]3C2)c(C(=O)Nc2ccc(F)c(Cl)c2)c1N (stereo partly drawn),EC50,in the range around 300 nM
Cn1cc(C(=O)Nc2ccc(F)c(Cl)c2)c(C2CC3CC(O)(CS(C)(=O)=O)CC3C2)n1 (stereo not drawn),EC50,in the range around 5250 nM
Cn1nc(C2CCC(c3csc(C(F)(F)F)n3)C2)c(C(=O)Nc2ccc(F)c(Cl)c2)c1N (stereo not drawn),EC50,in the range around 5250 nM
COc1cc(-c2cn(C)cn2)ccc1[C@H]1CC[C@@H](c2nn(C)c(N)c2C(=O)Nc2ccc(F)c(Cl)c2)C1,EC50,in the range around 300 nM
COc1cc(-c2ncc[nH]2)ccc1[C@@H]1CC[C@@H](c2nn(C)c(N)c2C(=O)Nc2ccc(F)c(Cl)c2)C1,EC50,< 100 nM
COc1cc(-c2nccs2)ccc1C1CCC(c2nn(C)c(N)c2C(=O)Nc2ccc(F)c(Cl)c2)C1 (stereo not drawn),EC50,in the range around 5250 nM
